Legend:
[1] = system: RPMI-8226 myeloma cell line bearing KRas^G12A oncogenic mutation; assay: Cell proliferation inhibition (MTS), RPMI-8226; assay type: cell-based; settings: Homo sapiens
Experimental: (§1) • Cell line #1: A549. Lung carcinoma cell line bearing KRas^G12S oncogenic mutation • Cell line #2: H358. non-small cell lung cancer line bearing KRas^G12C oncogenic mutation • Cell line #3: PANC-1. epithelioid carcinoma of the pancreas cell line bearing KRas^G12D oncogenic mutation • Cell line #4: RPMI. myeloma cell line bearing KRas^G12A oncogenic mutation
(§2) Cell lines were cultured in DMEM or RPMI-1640 supplemented with FBS 10%. In order to assess the antiproliferative effect of compounds, cells were seeded at a density of 1.8×10^3, 6.2×10^3, 7.8×10^3, 21×10^3 and 2×10^3 cells/cm^2, respectively, in tissue culture microplates and were incubated in humidified atmosphere at 5% CO2. 24 h later, compounds dissolved in DMSO 100% were added for different final concentrations ranging between 0.1 and 50 μM for a final DMSO concentration of 0.5% and the plates were incubated for another 72 h. After incubation, proliferation was quantified using CellTiter 96® Aqueous Non-Radioactive Cell Proliferation Assay-MTS (Promega #G5421) following manufacturer instructions. Amount of 490 nm absorbance is directly proportional to the number of living cells. Absorbance was recorded with a BMG Fluostar Optima Microplate Reader and normalized to control with vehicle.

[2] = system: H358 non-small cell lung cancer line bearing KRas^G12C oncogenic mutation; assay: Cell proliferation inhibition (MTS), H358; assay type: cell-based; settings: Homo sapiens, NCI-H358
Experimental: as §1, §2

[3] = system: A549 lung carcinoma cell line bearing KRas^G12S oncogenic mutation; assay: Cell proliferation inhibition (MTS), A549; assay type: cell-based; settings: Homo sapiens
Experimental: as §1, §2

[4] = system: PANC-1 epithelioid carcinoma of the pancreas cell line bearing KRas^G12D oncogenic mutation; assay: Cell proliferation inhibition (MTS), PANC-1; assay type: cell-based; settings: Homo sapiens
Experimental: as §1, §2

NIH-H358 cell line = assay: 3D CellTiter-Glo cell viability assay; assay type: cell-based; settings: 168 h, 7 days' compound treatment, 0.65% methylcellulose
Experimental: The protocol to perform 3D CellTiter-Glo™ cell viability assay is as follows:
Day −1: Cell Plating • Adjust cell concentrations to 1×10^5 cells/ml with respective medium. (Cell concentration is adjusted according to data base or density optimization assay). Mix 3.5 mL of cell suspension 6.5 mL of 1% methylcellulose. Mix and wait for bubbles to disperse before pipetting. This step yields 10 ml of cell suspension in 0.65% methylcellulose solution. Add 99.5 μL cell suspensions to 96-well plates according to plate map with final cell density. • Two duplicate plates will be set up. One is for day 0 reading (T0) and the other will be cultured in incubator for reading at the end point. • Incubate the plates overnight in humidified incubator at 37° C. with 5% CO2.
Day 0: T0 plate reading and compound treatment • Take T0 plate, add 0.5 μL culture medium to each well for T0 reading. • Add 100 μl CellTiter-Glo® Reagent to each well. • Mix contents for 2 minutes on an orbital shaker to facilitate cell lysis. • Allow the plate to incubate at room temperature for 10 minutes to stabilize luminescent signal. • Record luminescence using EnVision Multi Label Reader. • Dilute the test articles at the concentration indicated at Test Articles Dilution. Add 0.5 μL of each 200× compound working solutions according to plate inoculation map.
Day 7: Plate reading of 7 days' compound treatment • Add 100 μL CellTiter-Glo® Reagent to each well. • Mix contents for 2 minutes on an orbital shaker to facilitate cell lysis. • Allow the plate to incubate at room temperature for 10 minutes to stabilize luminescent signal. • Record luminescence using EnVision Multi Label Reader.

KRas = KRas (Homo sapiens, UniProt P01116); assay: Equilibrium dissociation constant by surface plasmon resonance; assay type: binding; settings: SPRi, immobilised KRas, 4° C.
KRas, sequence (P01116 1-188 isoform P01116-2): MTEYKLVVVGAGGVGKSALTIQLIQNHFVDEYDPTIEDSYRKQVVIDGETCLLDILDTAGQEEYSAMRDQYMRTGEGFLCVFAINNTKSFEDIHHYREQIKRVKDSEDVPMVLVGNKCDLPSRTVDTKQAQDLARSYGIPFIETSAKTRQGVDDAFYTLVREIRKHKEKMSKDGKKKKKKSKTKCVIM
Experimental: Various concentrations of KRas dissolved in water were manually printed onto bare gold-coated (thickness 47 nm) PlexArray Nanocapture Sensor Chips (Plexera Bioscience, Seattle, Wash., US) at 40% humidity. Each concentration was printed in replicate, and each spot contained 0.2 μL of KRas solution. The chip was incubated in 80% humidity at 4° C. for overnight, and rinsed with 10×PBST for 10 min, 1×PBST for 10 min, and deionized water twice for 10 min. The chip was then blocked with 5% (w/v) non-fat milk in water overnight, and washed with 10×PBST for 10 min, 1×PBST for 10 min, and deionized water twice for 10 min before being dried under a stream of nitrogen prior to use. SPRi measurements
were performed with PlexAray HT (Plexera Bioscience, Seattle, Wash., US). Collimated light (660 nm) passes through the coupling prism, reflects off the SPR-active gold surface, and is received by the CCD camera. Buffers and samples were injected by a non-pulsatile piston pump into the 30 μL flowcell that was mounted on the coupling prim. […] The signal changes after binding and washing (in AU) are recorded as the assay value. Selected protein-grafted regions in the SPR images were analyzed, and the average reflectivity variations of the chosen areas were plotted as a function of time. Real-time binding signals were recorded and analyzed by Data Analysis Module (DAM, Plexera Bioscience, Seattle, Wash., US). […]

[5] = system: NCI-H358 human lung cancer xenograft; assay: Subcutaneous NCI-H358 human lung cancer xenograft model in NOD/SCID mice; assay type: in vivo; settings: for Tolerability / safety in tumor bearing mice: 10 mg/kg b.i.d. i.p.; for Mean tumor volume: PG-D22 (Day 22 after first dosing), Compound 18 10 mg/kg Bid x 22 day, cisplatin 3.5 mg/kg BIW x 3.5 week, vehicle 630 mm^3; for Mean tumor volume / Tumor growth inhibition (TGI) / Number of mice (of 6) whose body weight loss (BWL) reached 10%: i.p.; for Tumor growth inhibition (TGI) / Anti-tumor effect compared with vehicle group: PG-D22; for Tumor growth inhibition (TGI): TGI=100x(1-T/C), Compound 18 10 mg/kg Bid; for Tumor growth inhibition (TGI) / Number of mice (of 6) whose body weight loss (BWL) reached 10%: cisplatin 3.5 mg/kg BIW; for Anti-tumor effect compared with vehicle group: group-2 p=0.026, group-3 p=0.019; for Number of mice (of 6) whose body weight loss (BWL) reached 10%: tumor bearing mice, compound 18 10 mg/kg Bid
Source text: Evaluation of the Efficacy of compound 18 in the Treatment of Subcutaneous NCI-H358 Human Lung Cancer Xenograft Model in NOD/SCID Mice
The treatments were started when the mean tumor size reached 141 mm^3. The test article administration and the animal numbers in each study group are shown in the following experimental design table.
Tumor growth inhibition (TGI): TGI (%) is an indication of antitumor effectiveness, and expressed as: TGI (%)=100×(1−T/C). T and C were the mean tumor volume of the treated and control groups, respectively, on a given day.

[6] = 72 h incubation, MTS, compounds 1-53, median from experimental results
[7] = compounds 54-63, based on estimations and/or preliminary experimental results

SMILES	IC50 [1, 6]	IC50 [2, 6]	IC50 [3, 6]	IC50 [4, 6]	IC50 (NIH-H358 cell line)	other results
COc1cc2c(cc1OCCc1cccnc1)C(c1ccc(C)cc1C)N(C(=O)NCc1cocn1)CC2 (centres unmarked) [Compound 23]	620 nM	590 nM	550 nM	490 nM	390 nM	
COc1cc2c(cc1OCCc1cccc(O)c1)C(c1ccc(C)cc1C)N(C(=O)NCc1cocn1)CC2 (centres unmarked) [Compound 18, 1-(2,4-dimethylphenyl)-7-(3-hydroxyphenethoxy)-6-methoxy-N-(oxazol-4-ylmethyl)-3,4-dihydroisoquinoline-2(1H)-carboxamide]	1210 nM	1660 nM	1970 nM	1590 nM	370 nM	Kd (KRas): 8.8 nM; koff (KRas; read-out: Kd (dissociation rate constant)): 0.00103 s⁻¹; Tolerability / safety in tumor bearing mice [5]: tolerate; Tolerability / safety in tumor bearing mice ([5]; listed as compound 18): safe; Mean tumor volume [5]: 238 mm^3; Tumor growth inhibition (TGI) [5]: about 62%; Anti-tumor effect compared with vehicle group [5]: significant anti-tumor effects; Anti-tumor effect compared with vehicle group ([5]; listed as compound 18): significant anti-tumor activities; Number of mice (of 6) whose body weight loss (BWL) reached 10% [5]: one
N.N.[Cl][Pt][Cl] [Cisplatin, reference compound]						Mean tumor volume [5]: 231 mm^3; Tumor growth inhibition (TGI) [5]: about 63%; Anti-tumor effect compared with vehicle group [5]: significant anti-tumor effects; Number of mice (of 6) whose body weight loss (BWL) reached 10% [5]: 4
Cc1ccc(C2c3cc(OCCc4cccc(F)c4)c(O)cc3CCN2C(=O)NCc2cocn2)c(C)c1 (centres unmarked) [Compound 26]	790 nM	1010 nM	2020 nM	1150 nM	9350 nM	
COc1cc2c(cc1OCCc1cccc(O)c1)C(c1ccc(C)cc1C)N(C(=O)NCc1cncs1)CC2 (centres unmarked) [Compound 19]	2930 nM	680 nM	950 nM	570 nM		
COc1cc2c(cc1OCCc1cnc(C)cn1)C(c1ccc(C)cc1C)N(C(=O)NCc1cocn1)CC2 (centres unmarked) [Compound 60]						IC50 [1, 7]: 500 nM; IC50 [2, 7]: 700 nM; IC50 [3, 7]: 600 nM; IC50 [4, 7]: 700 nM
CCNC(=O)N1CCc2cc(OC)c(OCCc3cccc(O)c3)cc2C1c1ccc(C)cc1C (centres unmarked) [Compound 17]	1740 nM	3100 nM	3520 nM	1830 nM	620 nM	
COc1cc2c(cc1OCCc1cccc(O)c1)C(c1ccc(C)cc1Cl)N(C(=O)NCc1ccncc1)CC2 (centres unmarked) [Compound 13]	2860 nM	15800 nM	9370 nM	12600 nM		
COc1cc2c(cc1OCCc1nccnc1C)C(c1ccc(C)cc1C)N(C(=O)NCc1cocn1)CC2 (centres unmarked) [Compound 59]						IC50 [1, 7]: 500 nM; IC50 [2, 7]: 700 nM; IC50 [3, 7]: 600 nM; IC50 [4, 7]: 7000 nM
CCC(=O)CCN1CCc2cc(OC)c(OCCc3cccc(O)c3)cc2C1c1ccc(OC)c(OC)c1Cl (centres unmarked) [Compound 8]	2110 nM	11200 nM	4110 nM	11100 nM		
COc1cc2c(cc1OCCc1cccnc1OC)C(c1ccc(C)cc1C)N(C(=O)NCc1cocn1)CC2 (centres unmarked) [Compound 56]						IC50 [1, 7]: 600 nM; IC50 [2, 7]: 600 nM; IC50 [3, 7]: 600 nM; IC50 [4, 7]: 500 nM
Cc1ccc(C2c3cc(OCCc4cccnc4)c(CO)cc3CCN2C(=O)NCc2cocn2)c(C)c1 (centres unmarked) [Compound 41]	1380 nM	1140 nM	1270 nM	2110 nM		

Now from value to compound, other results behind:

IC50 [1, 6]	IC50 [2, 6]	IC50 [3, 6]	IC50 [4, 6]	IC50 (NIH-H358 cell line)	SMILES	other results
320 nM	1210 nM	490 nM	620 nM	10100 nM	Cc1ccc(C2c3cc(OCCc4cccnc4)c(C)cc3CCN2C(=O)NCc2cocn2)c(C)c1 (centres unmarked) [Compound 42]	
600 nM	600 nM	500 nM	500 nM	334 nM	CCNC(=O)N1CCc2cc(OC)c(OCCc3cnccn3)cc2C1c1ccc(C)cc1C (centres unmarked) [Compound 51]	
800 nM	800 nM	800 nM	500 nM	373 nM	CCNC(=O)N1CCc2cc(OC)c(OCCc3cccc(N)c3)cc2C1c1ccc(C)cc1C (centres unmarked) [Compound 50]	
700 nM	600 nM	600 nM	500 nM		COc1cc2c(cc1OCCc1cnccn1)C(c1ccc(C)cc1C)N(C(=O)NCc1ccon1)CC2 (centres unmarked) [Compound 52]	
500 nM	700 nM	600 nM	700 nM	842 nM	CCNC(=O)N1CCc2cc(OC)c(OCCc3cccnc3)cc2C1c1ccc(C)cc1C (centres unmarked) [Compound 46]	
1500 nM	1200 nM	1500 nM	1500 nM		COc1cc2c(cc1OCCc1cccc(NC(C)=O)c1)C(c1ccc(C)cc1C)N(C(=O)NCc1cocn1)CC2 (centres unmarked) [Compound 47]	

— patent US11466012B2, “Tetrahydroisoquinoline compounds” (ALLINKY BIOPHARMA, priority 2018, dated 2022)
